Measurements as given in ChEMBL document CHEMBL1806463, “Synthesis, biological evaluation and docking studies of octane-carboxamide based renin inhibitors with extended segments toward S3' site of renin” (Bioorg Med Chem, 2011).

target: T1, Renin (Homo sapiens) (UniProt P00797); test: Ratio IC50 for aliskiren to compound for renin
T1 sequence (whole entry): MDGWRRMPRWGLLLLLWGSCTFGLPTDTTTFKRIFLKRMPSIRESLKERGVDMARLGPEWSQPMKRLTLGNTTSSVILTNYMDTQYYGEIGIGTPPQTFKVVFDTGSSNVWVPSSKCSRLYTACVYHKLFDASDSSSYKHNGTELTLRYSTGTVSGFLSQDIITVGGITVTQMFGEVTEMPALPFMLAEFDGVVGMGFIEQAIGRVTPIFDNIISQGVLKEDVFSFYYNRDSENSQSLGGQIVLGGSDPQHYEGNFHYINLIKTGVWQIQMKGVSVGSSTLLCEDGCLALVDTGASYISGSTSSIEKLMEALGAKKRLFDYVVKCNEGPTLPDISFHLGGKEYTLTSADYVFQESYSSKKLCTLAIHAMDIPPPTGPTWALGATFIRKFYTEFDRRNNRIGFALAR

Row | Ratio IC50 | Structure (SMILES)
1 | 10 | COCCCOc1cc(C[C@@H](C[C@H](N)[C@@H](O)C[C@H](C(=O)NCC(C)(C)Cn2ccnn2)C(C)C)C(C)C)ccc1OC

target: T2, Renin (Homo sapiens, UniProt P00797); test: Inhibition of renin measured every 30 secs for 15 mins by fluorimetric analysis
T2 sequence (P00797 whole entry): T1 sequence (whole entry)

Row | Structure (SMILES) | IC50
2 | COCCCOc1cc(C[C@@H](C[C@H](N)[C@@H](O)C[C@H](C(=O)NCC(C)(C)CNC(=O)c2ccc(OC)cc2)C(C)C)C(C)C)ccc1OC | 3.84 nM
3 | COCCCOc1cc(C[C@@H](C[C@H](N)[C@@H](O)C[C@H](C(=O)NCC(C)(C)CNC(=O)Cc2ccccc2)C(C)C)C(C)C)ccc1OC | 1.64 nM
4 | COCCCOc1cc(C[C@@H](C[C@H](N)[C@@H](O)C[C@H](C(=O)NCC(C)(C)Cn2ccnn2)C(C)C)C(C)C)ccc1OC | 0.2 nM
5 | COCCCOc1cc(C[C@@H](C[C@H](N)[C@@H](O)C[C@H](C(=O)NCC(C)(C)CN)C(C)C)C(C)C)ccc1OC | 2.88 nM
6 | COCCCOc1cc(C[C@@H](C[C@H](N)[C@@H](O)C[C@H](C(=O)NCC(C)(C)CNS(C)(=O)=O)C(C)C)C(C)C)ccc1OC | 4.23 nM
7 | COCCCOc1cc(C[C@@H](C[C@H](N)[C@@H](O)C[C@H](C(=O)NCC(C)(C)CNC(=O)c2ccccc2)C(C)C)C(C)C)ccc1OC | 1.02 nM
8 | COCCCOc1cc(C[C@@H](C[C@H](N)[C@@H](O)C[C@H](C(=O)NCC(C)(C)CNS(N)(=O)=O)C(C)C)C(C)C)ccc1OC | 0.79 nM
9 | COCCCOc1cc(C[C@@H](C[C@H](N)[C@@H](O)C[C@H](C(=O)NCC(C)(C)CNC(=O)C(F)(F)F)C(C)C)C(C)C)ccc1OC | 4.85 nM
10 | COCCCOc1cc(C[C@@H](C[C@H](N)[C@@H](O)C[C@H](C(=O)NCC(C)(C)CNS(=O)(=O)c2ccc(C)cc2)C(C)C)C(C)C)ccc1OC | 1.15 nM
11 | CCCCCC(=O)NCC(C)(C)CNC(=O)[C@@H](C[C@H](O)[C@@H](N)C[C@H](Cc1ccc(OC)c(OCCCOC)c1)C(C)C)C(C)C | 0.83 nM
12 | CCS(=O)(=O)NCC(C)(C)CNC(=O)[C@@H](C[C@H](O)[C@@H](N)C[C@H](Cc1ccc(OC)c(OCCCOC)c1)C(C)C)C(C)C | 0.91 nM

Now from value to compound:

Row | IC50 | Structure (SMILES)
13 | 4.13 nM | COCCCOc1cc(C[C@@H](C[C@H](N)[C@@H](O)C[C@H](C(=O)NCC(C)(C)CNC(=O)C(C)(C)C)C(C)C)C(C)C)ccc1OC
14 | 1.12 nM | CCCC(=O)NCC(C)(C)CNC(=O)[C@@H](C[C@H](O)[C@@H](N)C[C@H](Cc1ccc(OC)c(OCCCOC)c1)C(C)C)C(C)C
15 | 0.81 nM | CCOC(=O)NCC(C)(C)CNC(=O)[C@@H](C[C@H](O)[C@@H](N)C[C@H](Cc1ccc(OC)c(OCCCOC)c1)C(C)C)C(C)C
16 | 0.36 nM | COCCCOc1cc(C[C@@H](C[C@H](N)[C@@H](O)C[C@H](C(=O)NCC(C)(C)CNC(=O)N(C)C)C(C)C)C(C)C)ccc1OC
17 | 1.08 nM | CCC(=O)NCC(C)(C)CNC(=O)[C@@H](C[C@H](O)[C@@H](N)C[C@H](Cc1ccc(OC)c(OCCCOC)c1)C(C)C)C(C)C
18 | 1.48 nM | COCCCOc1cc(C[C@@H](C[C@H](N)[C@@H](O)C[C@H](C(=O)NCC(C)(C)CNC(=O)CC(C)C)C(C)C)C(C)C)ccc1OC
